This is an account of results in ChEMBL document CHEMBL1152735, “Synthesis and antiprotozoal activity of novel 1-methylbenzimidazole derivatives” (Bioorg Med Chem, 2009).

As usually defined, the IC50 is the point on the concentration scale where inhibition reaches its midpoint.

For one test, the system named is Trichomonas vaginalis. In words: Antiprotozoal activity against Trichomonas vaginalis GT3 trophozoites after 48 hrs. In kind it is functional, organism-based. The note with it: GT3, 48 h.
In a further test the test system is Giardia intestinalis. The test can be described thus: Antiprotozoal activity against Giardia intestinalis IMSS:0981:1 trophozoites after 48 hrs. The test is classed as functional, organism-based. The note with it: Giardia duodenalis.

On to `CC(O)c1nc2cc(Cl)c(Cl)cc2n1C` (stereo not given), for which the IC50 in the test with Trichomonas vaginalis is 0.0407 µM; in the test with Giardia intestinalis, 0.0203 µM.
Taken in the same sequence, the figures for `CCOC(=O)c1nc2ccc(Cl)cc2n1C` were 0.0189 µM and 0.0482 µM.
Taken in the same sequence, the figures for `Cn1c(C(N)=O)nc2ccc(Cl)cc21` were 0.109 µM and 0.0763 µM.
For the compound `CC(O)c1nc2cc(Cl)ccc2n1C` (stereo not given), the IC50 in the test with Trichomonas vaginalis is 0.0949 µM; in the test with Giardia intestinalis, 0.0379 µM.
Take `CNC(=O)c1nc2cc(Cl)c(Cl)cc2n1C`: the results for the IC50 with Trichomonas vaginalis and with Giardia intestinalis were 0.225 µM and 0.151 µM, respectively.
Turning to `CN(C)C(=O)c1nc2ccc(Cl)cc2n1C`, the IC50 in the test on Trichomonas vaginalis was found to be 0.238 µM; in the test with Giardia intestinalis, 0.04 µM.
Taken in the same sequence, the figures for `CCOC(=O)c1nc2cc(Cl)c(Cl)cc2n1C` were 0.0293 µM and 0.0275 µM.
With `CNC(=O)c1nc2ccc(Cl)cc2n1C`, the results for the IC50 with Trichomonas vaginalis and in the test with Giardia intestinalis were 0.105 µM and 0.0715 µM, respectively.
`Cn1c(C(N)=O)nc2cc(Cl)c(Cl)cc21`: the IC50 with Trichomonas vaginalis worked out at 0.134 µM; in the test with Giardia intestinalis it was 0.462 µM.
On to `CC(=O)c1nc2cc(Cl)c(Cl)cc2n1C`, for which the values for the IC50 with Trichomonas vaginalis and with Giardia intestinalis were 0.0637 µM and 0.0349 µM, respectively.
For the compound `CNC(=O)c1nc2ccccc2n1C`, the IC50 stood at 0.108 µM with Trichomonas vaginalis and 0.0608 µM in the test on Giardia intestinalis.
Consider `CC(=O)c1nc2cc(Cl)ccc2n1C`, for which the IC50 with Trichomonas vaginalis amounted to 0.132 µM; in the test on Giardia intestinalis, 0.0503 µM.
As for `CCOC(=O)c1nc2ccccc2n1C`, the IC50 turned out to be 0.0857 µM with Trichomonas vaginalis and 0.0686 µM with Giardia intestinalis.
As for `CC(O)c1nc2ccc(Cl)cc2n1C` (stereo not given), the figures for the IC50 in the test on Trichomonas vaginalis and in the test on Giardia intestinalis were 0.109 µM and 0.0712 µM, respectively.
For the compound `CN(C)C(=O)c1nc2cc(Cl)ccc2n1C`, the results for the IC50 in the test on Trichomonas vaginalis and with Giardia intestinalis were 0.21 µM and 0.244 µM, respectively.
Taken in the same sequence, the figures for `CC(=O)c1nc2ccccc2n1C` were 0.209 µM and 0.0861 µM.
In the case of `CNC(=O)c1nc2cc(Cl)ccc2n1C`, the IC50 in the test with Trichomonas vaginalis and in the test with Giardia intestinalis was 0.358 µM in each case.
`CCOC(=O)c1nc2cc(Cl)ccc2n1C`: the IC50 in the test on Trichomonas vaginalis came out at 0.0272 µM; with Giardia intestinalis, 0.0398 µM.
Taken in the same sequence, the figures for `Cn1c(C(N)=O)nc2ccccc21` were 0.166 µM and 0.0942 µM.
As to `CC(=O)c1nc2ccc(Cl)cc2n1C`, the values for the IC50 in the test with Trichomonas vaginalis and with Giardia intestinalis were 0.228 µM and 0.067 µM, respectively.
For `CN(C)C(=O)c1nc2ccccc2n1C`, the IC50 in the test on Trichomonas vaginalis was found to be 0.43 µM; with Giardia intestinalis, 0.512 µM.
For `Cn1c(C(N)=O)nc2cc(Cl)ccc21`, the IC50 in the test with Trichomonas vaginalis worked out at 0.186 µM; in the test with Giardia intestinalis, 0.234 µM.
Take `CC(O)c1nc2ccccc2n1C` (stereo not given): the values for the concentration for half-maximal inhibition (IC50) in the test with Trichomonas vaginalis and in the test with Giardia intestinalis were 0.167 µM and 0.0681 µM, respectively.
For the compound `CCCSc1ccc2[nH]c(NC(=O)OC)nc2c1` [ALBENDAZOLE], the IC50 in the test on Trichomonas vaginalis amounted to 1.59 µM.
On to `CN(C)C(=O)c1nc2cc(Cl)c(Cl)cc2n1C`, for which the IC50 in the test with Trichomonas vaginalis worked out at 0.0753 µM; with Giardia intestinalis, 0.0735 µM.
In turn, `Cc1ncc([N+](=O)[O-])n1CCO` [METRONIDAZOLE] returned an IC50 in the test on Trichomonas vaginalis of 0.236 µM.
